Data set [1] concerns normal human control plasma. The data set is described as follows: activated partial thromboplastin time (aPTT) clotting assay. How it is done:
The effect of the nanocomplexes on a physiologic coagulation pathway was tested using a standard activated partial thromboplastin time (aPTT) clotting assay, which is also used to monitor heparin levels of patients. This assay measures the amount of time needed for a plasma sample to form a clot in vitro when the contact pathway of coagulation is triggered by addition of an exogenous aPTT reagent. For the assay, varying concentrations of nanocomplexes or free heparin were added to 50 μl of APTT reagent (Thermo Scientific) at 37° C. for 3 minutes. Subsequently, 50 μl of 25 mM CaCl2 (Sigma) pre-incubated at 37° C. were added to samples and clotting was monitored via absorbance at 605 nm with a SpectraMAX Plus spectrophotometer ([…]).

For data set [2], the system named is thromboplastin-induced model of pulmonary thromboembolism. The data set is described as follows: thromboplastin-induced model of pulmonary thromboembolism. The format is in vivo. Conditions: mice. How it is done:
To evaluate the ability of nanocomplexes to prevent thrombosis in vivo, a thromboplastin-induced model of pulmonary thromboembolism was utilized. […] For the pulmonary embolism assay, bovine fibrinogen (Sigma) was reacted with near-infrared fluorochromes (Vivotag-750-NHS, Perkin-Elmer) at a 2:1 fluorophore:protein molar ratio in PBS for 1 hour and purified by column centrifugation (100 kDa cutoff, Millipore) to remove unreacted fluorophores. Ampules of thromboplastin from rabbit brain (Sigma, #44213) were reconstituted with 2 mL of PBS each.
To ascertain the initial dosing ranges for the nanocomplexes, mice were dosed with thromboplastin and escalating doses of free heparin (40 U/kg, 100 U/kg and 200 U/kg heparin). Deposition of VT750-fibrin in the lungs of the mice was quantified using ex vivo infrared imaging. […] Accordingly, the dose of nanocomplexes corresponding to heparin doses of 200 U/kg was chosen for subsequent experiments.
Mice (n=5 per condition) were anesthetized with isofluorane gas and co-administered nanocomplexes (200 U/kg), free heparin (200 U/kg), or PBS control and 1 nmol of VT750-fibrinogen via tail vein injection. After 5 minutes, mice were injected with thromboplastin (2 uL/g). After 30 minutes, mice were euthanized with CO2 and the lungs were harvested and imaged on the LI-COR Odyssey Infrared Imaging System. Fibrin deposition was then quantified using ImageJ software. For histologic analysis, paraffin-embedded sections of lungs were prepared (Koch Institute Histology Core). Lungs were first fixed by incubating in 4% paraformaldehyde overnight. Hematoxylin and eosin […] staining of lung sections was used to visualize clots in the lungs.

Data set [3] deals with thrombin generation in human plasma. The data set is described as follows: real-time thrombin generation assay in human plasma. How it is done: To further analyze the anticoagulant mechanism of the nanocomplexes, we performed real-time thrombin generation assays in human plasma. For this assay, varying concentrations of nanocomplexes or free heparin were added to 20 μL of control normal human plasma (Thermo Scientific). Real time thrombin generation was measured using the Technothrombin TGA kit (Technoclone) using the RD reagent according to manufacturer instructions. The fluorescence was monitored using a TECAN Infinite M200 Pro and thrombin generation was calculated using the corresponding Excel evaluation software provided by Technoclone.

In data set [4] the test system is mice. The data set is described as follows: Tail bleeding time after tail transection. Format: in vivo. The following applies: 200 U/kg intravenously. How it is done:
To assess the effect of nanocomplex administration on bleeding tail transection on mice was performed five minutes after they were treated intravenously with nanocomplexes. Specifically, mice (n=5-7 per condition) were anesthetized with isofluorane gas and administered nanocomplexes (200 U/kg, n=5), heparin (200 U/kg, n=7), or PBS control (n=5). After 5 minutes, 2 mm of distal mouse tail was removed by scalpel. Bleeding time was determined by lightly dabbing the tail with kimwipe tissues (Kimtech) until bleeding fully ceased for at least 1 minute. All experimental protocols involving animals were approved by the MIT Committee on Animal Care.

In the case of heparin [free heparin], the aPTT clotting time in data set [1] (0.4 U/mL) is on record as approximately 44 s; in data set [1] (0.8 U/mL) it was approximately 44 s; in data set [1] (2 U/mL), approximately 136 s. Moreover, the “aPTT clotting time relative to control” value in data set [1] (0.4 U/mL) is on record as ~1.5 × of control; in data set [1] (0.8 U/mL), approximately 1.5 fold over control; in data set [1] (2 U/mL) it was approximately 5 fold over control; in data set [1] (2 U/mL, listed as heparin), ~5 x of control. Besides, the “VT750-fibrin deposition in the lungs” value in data set [2] (40 U/kg, with thromboplastin) was “did not significantly reduce”; in data set [2] (100 U/kg, with thromboplastin), “did not significantly reduce”. In data set [2] (200 U/kg, thromboplastin 2 uL/g), the “histological analysis of lung microvessels (hematoxylin and eosin)” value was “largely patent”. In addition, the “reduction of VT750-fibrin deposition in the lungs” value in data set [2] (200 U/kg, with thromboplastin) is given as “more than two-fold”. The “reduction of ETP” value in data set [3] (1.6 U/mL) is recorded as approximately 80%. Besides, in data set [3] (increasing concentrations), the “lag time (time to initial thrombin formation)” value was “prolonged in a dose-dependent manner”. In addition, the “increase of mean bleeding time over PBS control” value in data set [4] is on record as “greater than 280%”. The same substance registered a mean bleeding time in data set [4] (tail transection after 5 minutes) of approximately 9.2 min.

The record behind these values is patent US20140364368A1, “STIMULUS RESPONSIVE NANOCOMPLEXES AND METHODS OF USE THEREOF” (MASSACHUSETTS INSTITUTE OF TECHNOLOGY, priority 2013, published 2014).
